Results on 6 molecules are retold here after patent US20240425464A1, “Substituted Monohydrazides as Potent Antifungal Agents” (University of Kentucky Research Foundation, priority 2023, published 2024).

The structures appear in SMILES notation. Converted amounts (≈) assume the structure as drawn.

One may read the MIC as the least concentration at which growth counts as inhibited.

The test system of test [1] is Candida duobushaemulonii AR Bank #391. Nature of the test: MIC determination by in vitro antifungal assay. It is filed as cell-based. Particulars: Candidozyma duobushaemuli, read-out: MIC. The protocol: (§1) The antifungal agent amphotericin B (AmB) was purchased from VWR (Radnor PA, USA). AmB was dissolved in DMSO at a final concentration of 5 mg/mL and was stored at −20° C., protected from light. Candida albicans American Type Culture Collection (ATCC) 10231 (strain A), C. albicans ATCC 64124 (B), and C. albicans ATCC MYA-2876 (C) were obtained from Utah State University. C. albicans ATCC 90819 (D), C. albicans ATCC MYA-2310 (E), C. albicans ATCC MYA-1237 (F), C. albicans ATCC MYA-1003 (G), Candida glabrata ATCC 2001 (H), Candida krusei ATCC 6258 (I), Candida parapsilosis ATCC 22019 (J), Cryptococcus neoformans ATCC MYA-895 (M), Aspergillus terreus ATCC MYA-3633 (N), and Aspergillus flavus ATCC MYA-3631 (0) were obtained from the American Type Culture Collection (ATCC; Manassas, VA, USA). Aspergillus nidulans ATCC 38163 (P) was obtained from University of Kentucky. Clinically derived Aspergillus fumigatus NRRL 163 (Q), A. fumigatus NRRL 5109 (R), and A. fumigatus NRRL 6113 (S) were obtained from Northern Regional Research Laboratory (NRRL). Candida auris 384 (K), C. auris 390 (L), and fungal strains 381-400 (including 10 C. auris (AR Bank #381-390), 3 Candida duobushaemulonii (AR Bank #391, AR Bank #392, and AR Bank #394), 2 Candida haemulonii (AR Bank #393 and AR Bank #395), 1 Kodameae ohmeri (AR Bank #396), 1 C. krusei (AR Bank #397), 1 Candida lusitaniae (AR Bank #398), and 2 Saccharomyces cerevisiae strains (AR Bank #399 and AR Bank #400)) were part of a larger fungal library from the AR Bank maintained by the Centers for Disease Control and Prevention (CDC; Atlanta, GA, USA). Filamentous fungi and yeasts were cultivated at 35° C. in RPMI 1640 medium (with L-glutamine, without sodium bicarbonate, Sigma-Aldrich, St. Louis, MO) buffered to a pH of 7.0 with 0.165 M morpholinepropanesulfonic acid (MOPS) buffer (Sigma-Aldrich). For cytotoxicity assays, HepG2 and the mouse macrophage cell line J774A.1 were obtained from University of Kentucky. The human embryonic kidney cell line, HEK-293, was bought from the ATCC. Mammalian cells were grown in Dulbecco's Modified Eagle's Medium (DMEM) (from VWR) with 10% fetal bovine serum (FBS) (from VWR) and 1% Pen/Strep (from ATCC). Cell lines were cultured at 37° C. with 5% CO2 and passaged by trypsinization with 0.05% trypsin: 0.53 mM EDTA (from Sigma-Aldrich).
(§2) From the actively growing yeast culture, 100 µL were then transferred to 900 μL of RPMI 1640 medium and re-adjusted to achieve OD600 of 0.12 (˜1×10^6 CFU/mL). The cell suspension was further diluted to achieve 1:100 in RPMI 1640 medium.

The subject of test [2] is Candida duobushaemulonii AR Bank #392. Kind of test: MIC determination by in vitro antifungal assay. In kind it is cell-based. Particulars: Candidozyma duobushaemuli, read-out: MIC. As to the method:
as §1, §2

The test system of test [3] is Candida duobushaemulonii AR Bank #394. Nature of the test: MIC determination by in vitro antifungal assay. It is filed as cell-based. Particulars: Candidozyma duobushaemuli, read-out: MIC. As to the method: as §1, §2
The subject of test [4] is Candida haemulonii AR Bank #393. Kind of test: MIC determination by in vitro antifungal assay. In kind it is cell-based. To be noted: Candidozyma haemuli, read-out: MIC. As to the method: as §1, §2
The subject of test [5] is Candida haemulonii AR Bank #395. Nature of the test: MIC determination by in vitro antifungal assay. It is filed as cell-based. To be noted: Candidozyma haemuli, read-out: MIC. As to the method:
as §1, §2

Test [6] concerns Candida krusei AR Bank #397. Kind of test: MIC determination by in vitro antifungal assay. It is filed as cell-based. Particulars: Pichia kudriavzevii; Candida strain AR Bank #397; read-out: MIC. As to the method:
as §1, §2

The subject of test [7] is Candida lusitaniae AR Bank #398. Kind of test: MIC determination by in vitro antifungal assay. It is filed as cell-based. Particulars: Clavispora lusitaniae; Candida strain AR Bank #398; read-out: MIC. As to the method: as §1, §2
Test [8] deals with Kodameae ohmeri AR Bank #396. Kind of test: MIC determination by in vitro antifungal assay. It is filed as cell-based. Particulars: strain AR Bank #396; read-out: MIC. As to the method:
as §1, §2

In test [9] the test system is Saccharomyces cerevisiae AR Bank #399. Nature of the test: MIC determination by in vitro antifungal assay. To be noted: read-out: MIC. It is filed as cell-based. The protocol: as §1, §2
Test [10] deals with C. albicans ATCC 10231 (strain A) biofilm formation. Kind of test: Prevention of biofilm formation assay. In kind it is cell-based, Candida albicans. The protocol: Biofilm prevention assays were set up identically to the ordinary MIC experiment, where compounds were diluted, and the fungi added. After overnight growth, the plates were washed as in the biofilm disruption assay and stained and measured in the same fashion.
A large amount of fungal cells were exposed to the monohydrazides at time 0 h to evaluate the effect of these compounds in the prevention of Candida biofilm formation (FIG. 5B). […] Although some of these monohydrazides were able to prevent biofilm formation, none of these compounds had any effect in terms of the disruption of already pre-formed biofilms (FIG. 5A).

Test [11] deals with panel of ten C. auris strains (AR Bank #381-390). Kind of test: MIC determination, summary over the C. auris panel. In kind it is cell-based, Candida auris. To be noted: Candidozyma auris; against all ten C. auris strains tested (AR Bank #381-390). As to the method: as §1, §2
The test system of test [12] is ten other fungal strains (AR Bank #391-400). Nature of the test: MIC determination, summary over ten additional fungal strains. It is filed as cell-based. To be noted: read-out: MIC range. As to the method:
as §1, §2

Turning to `O=C(NNc1ccc(F)cc1)c1ccccn1` [Compound 2d], the MIC is 0.49 µg/mL (≈ 2.12 µM) in test [1]; 0.49 µg/mL (≈ 2.12 µM) in [2]; 0.24 µg/mL (≈ 1.04 µM) in test [3]; 0.24 µg/mL (≈ 1.04 µM) in test [4]; 0.12 µg/mL (≈ 0.519 µM) in test [5]; 0.24 µg/mL (≈ 1.04 µM) in [6]. The MIC in [7] was 1.95 µg/mL (≈ 8.43 µM); in [8], 0.24 µg/mL (≈ 1.04 µM); in test [9], 3.9 µg/mL (≈ 16.9 µM); in test [11] it was 0.12 to 7.8 µg/mL (≈ 0.519 to 33.7 µM); in test [12], 0.06 to 7.8 µg/mL (≈ 0.259 to 33.7 µM). In test [10], the “concentration active in prevention of biofilm formation” value amounted to 1.96 j·tg mL^−1.
As for `O=C(NNc1cc(F)ccc1F)c1ccccn1` [Compound 2h], the MIC in test [1] was determined as 0.49 µg/mL (≈ 1.97 µM); in [2], 0.24 µg/mL (≈ 0.963 µM); in [3], 0.24 µg/mL (≈ 0.963 µM); in test [4], 0.98 µg/mL (≈ 3.93 µM); in test [5], 0.24 µg/mL (≈ 0.963 µM); in test [6] it was 0.24 µg/mL (≈ 0.963 µM). For the same molecule, the MIC was 0.49 µg/mL (≈ 1.97 µM) in test [7]; 0.12 µg/mL (≈ 0.482 µM) in test [8]; 1.95 µg/mL (≈ 7.82 µM) in test [9]; 0.06 to 1.95 µg/mL (≈ 0.241 to 7.82 µM) in test [11]; 0.06 to 1.95 µg/mL (≈ 0.241 to 7.82 µM) in test [12]. In test [10], the “prevention of biofilm formation” value is “not capable of preventing”.
For the molecule `O=C(NNc1cc(F)cc(F)c1)c1ccccn1` [Compound 2i], the MIC in test [1] was 0.24 µg/mL (≈ 0.963 µM); in [2] it was 0.49 µg/mL (≈ 1.97 µM); in [3], 0.24 µg/mL (≈ 0.963 µM); in test [4], 0.49 µg/mL (≈ 1.97 µM); in test [5] it was 0.24 µg/mL (≈ 0.963 µM); in [6], 0.12 µg/mL (≈ 0.482 µM). The MIC was 0.49 µg/mL (≈ 1.97 µM) in test [7]; 0.12 µg/mL (≈ 0.482 µM) in test [8]; 1.95 µg/mL (≈ 7.82 µM) in [9]; 0.06 to 1.95 µg/mL (≈ 0.241 to 7.82 µM) in test [11]; 0.06 to 1.95 µg/mL (≈ 0.241 to 7.82 µM) in test [12]. Further, the “prevention of biofilm formation” value in test [10] is reported as “not capable of preventing”.
For `O=C(NNc1cc(Cl)cc(Cl)c1)c1ccccn1` [Compound 2j], the minimal inhibitory concentration (MIC) in test [1] came to 0.98 µg/mL (≈ 3.47 µM); in test [2] it was 0.98 µg/mL (≈ 3.47 µM); in test [3], 0.49 µg/mL (≈ 1.74 µM); in test [4], 0.24 µg/mL (≈ 0.851 µM); in [5], 0.24 µg/mL (≈ 0.851 µM); in test [6], 0.49 µg/mL (≈ 1.74 µM). Besides, the MIC was 3.9 µg/mL (≈ 13.8 µM) in [7]; 0.49 µg/mL (≈ 1.74 µM) in test [8]; 3.9 µg/mL (≈ 13.8 µM) in test [9]; 0.12 to 7.8 µg/mL (≈ 0.425 to 27.6 µM) in test [11]; 0.06 to 7.8 µg/mL (≈ 0.213 to 27.6 µM) in [12]. Also, the “prevention of biofilm formation” value in test [10] is “not capable of preventing”.
`O=C(NNc1ccc(F)cc1F)c1ccccn1` [Compound 2g]: the MIC in test [1] was 0.12 µg/mL (≈ 0.482 µM); in test [2], 0.49 µg/mL (≈ 1.97 µM); in [3], 3.9 µg/mL (≈ 15.6 µM); in test [4], 0.49 µg/mL (≈ 1.97 µM); in test [5], 0.24 µg/mL (≈ 0.963 µM); in test [6] it was at most 0.06 µg/mL. Further, the MIC was 1.95 µg/mL (≈ 7.82 µM) in test [7]; 0.98 µg/mL (≈ 3.93 µM) in [8]; 0.49 µg/mL (≈ 1.97 µM) in test [9]; 0.06 to 1.95 µg/mL (≈ 0.241 to 7.82 µM) in test [11]; 0.06 to 7.8 µg/mL (≈ 0.241 to 31.3 µM) in test [12]. Besides, in test [10], the “prevention of biofilm formation” value is recorded as “not capable of preventing”.
As for `COc1ccc(NNC(=O)c2ccccn2)cc1` [Compound 2f], the MIC in test [1] was 0.98 µg/mL (≈ 4.03 µM); in test [2] it was 0.98 µg/mL (≈ 4.03 µM); in [3], 0.98 µg/mL (≈ 4.03 µM); in [4] it was 0.49 µg/mL (≈ 2.01 µM); in test [5], 0.49 µg/mL (≈ 2.01 µM); in test [6] it was 0.49 µg/mL (≈ 2.01 µM). The MIC was 0.98 µg/mL (≈ 4.03 µM) in test [7]; 0.49 µg/mL (≈ 2.01 µM) in test [8]; 1.95 µg/mL (≈ 8.02 µM) in [9]; 0.12 to 7.8 µg/mL (≈ 0.493 to 32.1 µM) in test [11]; 0.06 to 1.95 µg/mL (≈ 0.247 to 8.02 µM) in [12]. In addition, in test [10], the “concentration active in prevention of biofilm formation” value is on record as 7.8 j·tg mL^−1.
